# Source: ChEMBL document CHEMBL1141126, “Improving the antiviral efficacy and selectivity of HIV-1 reverse transcriptase inhibitor TSAO-T by the introduction of functional groups at the N-3 position” (J Med Chem, 2005)
# How the values were obtained:
# [1] = target: Human immunodeficiency virus type 1 reverse transcriptase (Human immunodeficiency virus 1, UniProt Q72547); test: Inhibitory concentration required to inhibit recombinant HIV-1 reverse transcriptase
# CCRF-CEM [2] = test: Cytostatic concentration required to inhibit cell proliferation in human CEM cell line; Range 10-50; type: functional
# CCRF-CEM [3] = test: Ratio of cytostatic concentration to effective concentration in human CEM cell line; Range 1000-5000; type: functional
# [4] = system: Human immunodeficiency virus 1; test: Effective concentration required to inhibit HIV-1 induced cytopathicity in human CEM cell line; type: functional, organism-based; details: Human immunodeficiency virus 1, CCRF-CEM
# [5] = system: Human immunodeficiency virus 2; test: Effective concentration required to inhibit HIV-2 induced cytopathicity in human CEM cell line; type: functional, organism-based; details: Human immunodeficiency virus 2, CCRF-CEM
# [6] = system: Human immunodeficiency virus 2; test: Effective concentration required to inhibit HIV-2 induced cytopathicity in human MT-4 cell line; type: functional, organism-based; details: Human immunodeficiency virus 2, MT4
# [7] = system: Human immunodeficiency virus 1; test: Effective concentration required to inhibit HIV-1/138K induced cytopathicity in human CEM cell line; type: functional, organism-based; details: Human immunodeficiency virus 1, CCRF-CEM
# CCRF-CEM [8] = test: Cytostatic concentration required to inhibit cell proliferation in human CEM cell line; type: functional
# CCRF-CEM [9] = test: Ratio of cytostatic concentration to effective concentration in human CEM cell line; type: functional
# [10] = system: Human immunodeficiency virus 1; test: Effective concentration required to inhibit HIV-1 induced cytopathicity in human MT-4 cell line; type: functional, organism-based; details: Human immunodeficiency virus 1, MT4
Compound,IC50 [1],CC50 (CCRF-CEM [2]),SI (CCRF-CEM [3]),EC50 [4],EC50 [5],EC50 [6],EC50 [7],CC50 (CCRF-CEM [8]),SI (CCRF-CEM [9]),EC50 [10]
CNC(=O)CCCCn1c(=O)c(C)cn([C@@H]2O[C@H](CO[Si](C)(C)C(C)(C)C)[C@@]3(OS(=O)(=O)C=C3N)[C@H]2O[Si](C)(C)C(C)(C)C)c1=O,0.56 µM,50 µM,5000,0.01 µM,> 10 µM,> 10 µM,≥ 2 µM,–,–,–
CNC(=O)CCCCCn1c(=O)c(C)cn([C@@H]2O[C@H](CO[Si](C)(C)C(C)(C)C)[C@@]3(OS(=O)(=O)C=C3N)[C@H]2O[Si](C)(C)C(C)(C)C)c1=O,2.4 µM,–,–,0.05 µM,> 125 µM,> 125 µM,10 µM,22.1 µM,442,0.03 µM
COC(=O)/C=C/Cn1c(=O)c(C)cn([C@@H]2O[C@H](CO[Si](C)(C)C(C)(C)C)[C@@]3(OS(=O)(=O)C=C3N)[C@H]2O[Si](C)(C)C(C)(C)C)c1=O,30 µM,–,–,0.06 µM,> 10 µM,> 250 µM,5.5 µM,142 µM,2367,0.13 µM
Cc1cn([C@@H]2O[C@H](CO[Si](C)(C)C(C)(C)C)[C@@]3(OS(=O)(=O)C=C3N)[C@H]2O[Si](C)(C)C(C)(C)C)c(=O)n(C/C=C/CO)c1=O,4.5 µM,–,–,0.02 µM,> 2 µM,> 2 µM,4.5 µM,4.41 µM,220,0.07 µM
Cc1cn([C@@H]2O[C@H](CO[Si](C)(C)C(C)(C)C)[C@@]3(OS(=O)(=O)C=C3N)[C@H]2O[Si](C)(C)C(C)(C)C)c(=O)n(CCCCO)c1=O,13 µM,–,–,0.09 µM,> 10 µM,> 10 µM,≥ 10 µM,20.5 µM,227,0.17 µM
Cc1cn([C@@H]2O[C@H](CO[Si](C)(C)C(C)(C)C)[C@@]3(OS(=O)(=O)C=C3N)[C@H]2O[Si](C)(C)C(C)(C)C)c(=O)n(CCCN2C(=O)c3ccccc3C2=O)c1=O,> 500 µM,–,–,0.11 µM,> 250 µM,> 250 µM,> 250 µM,> 250 µM,>2272,0.29 µM
Cc1cn([C@@H]2O[C@H](CO[Si](C)(C)C(C)(C)C)[C@@]3(OS(=O)(=O)C=C3N)[C@H]2O[Si](C)(C)C(C)(C)C)c(=O)n(CCCNC(=O)OCc2ccccc2)c1=O,> 500 µM,–,–,0.15 µM,> 50 µM,> 50 µM,> 50 µM,229 µM,1526,0.17 µM
CCCCOC(=O)CN(CCCn1c(=O)c(C)cn([C@@H]2O[C@H](CO[Si](C)(C)C(C)(C)C)[C@@]3(OS(=O)(=O)C=C3N)[C@H]2O[Si](C)(C)C(C)(C)C)c1=O)CC(=O)OCCCC,> 500 µM,–,–,3.5 µM,> 250 µM,> 250 µM,> 250 µM,> 250 µM,71,12.8 µM
